One may read the IC50 as the concentration at which inhibition is half-maximal.

Each structure is given as a SMILES string.

The values below come from BindingDB's records for doi:10.1016/j.bmcl.2004.07.091 (Keio University, 2004).

In assay [1] the target is T1, Beta-galactosidase (Bos taurus, UniProt Q58D55).
T1 sequence (Q58D55 whole entry): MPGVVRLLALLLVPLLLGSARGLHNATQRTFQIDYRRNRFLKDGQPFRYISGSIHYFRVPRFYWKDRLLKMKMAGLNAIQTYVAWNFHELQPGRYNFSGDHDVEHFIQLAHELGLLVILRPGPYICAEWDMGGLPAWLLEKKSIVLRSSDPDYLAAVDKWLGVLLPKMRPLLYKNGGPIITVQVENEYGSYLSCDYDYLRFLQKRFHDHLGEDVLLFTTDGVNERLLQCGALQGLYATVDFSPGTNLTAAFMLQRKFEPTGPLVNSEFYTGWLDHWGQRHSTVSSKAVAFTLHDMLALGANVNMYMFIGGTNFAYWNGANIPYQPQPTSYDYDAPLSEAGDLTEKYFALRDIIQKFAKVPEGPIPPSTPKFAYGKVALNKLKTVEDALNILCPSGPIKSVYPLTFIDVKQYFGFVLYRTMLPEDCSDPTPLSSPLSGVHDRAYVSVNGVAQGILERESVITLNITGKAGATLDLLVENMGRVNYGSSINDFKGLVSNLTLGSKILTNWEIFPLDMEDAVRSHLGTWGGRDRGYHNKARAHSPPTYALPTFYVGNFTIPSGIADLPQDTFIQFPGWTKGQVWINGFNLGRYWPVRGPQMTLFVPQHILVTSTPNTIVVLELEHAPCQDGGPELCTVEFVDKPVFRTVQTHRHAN
The assay is described as follows: Inhibition of Beta-galactosidase of bovine liver; no inhibition.

For assay [2], the target named is beta-glucosidase (Rattus norvegicus). The assay can be described thus: Inhibition of Beta-glucosidase of rat intestine; no inhibition.

As for `N[C@H]1C[C@H](CO)[C@@H](O)[C@H](O)[C@H]1O`, the IC50 in assay [1] was > 1000 µM. For `CO[C@@H]1CC2COC(C1O)[C@H]2NC1CC(CO)C(O)C(O)C1O` (stereo partly drawn) [4-((3R,8S)-4-Hydroxy-3-methoxy-6-oxa-bicyclo[3.2.1]oct-8-ylamino)-6-hydroxymethyl-cyclohexane-1,2,3-triol], the IC50 in assay [2] and in assay [1] was > 1000 µM each time. Turning to `CCCCCCCCNC1CC(CO)C(O)C(O)C1O` (stereo unspecified) [4-Hydroxymethyl-6-octylamino-cyclohexane-1,2,3-triol], the IC50 in assay [2] was > 1000 µM. On to `C=C1CC(NCCCCCCCC)C(O)C(O)C1O` (stereo unspecified) [4-Methylene-6-octylamino-cyclohexane-1,2,3-triol], for which, in assay [2], the IC50 is > 1000 µM. Take `CC(=O)NC1CC(CO)C(O)C(O)C1O` (stereo unspecified) [N-(2,3,4-Trihydroxy-5-hydroxymethyl-cyclohexyl)-acetamide]: in assay [1], the IC50 is > 1000 µM.
